Laboratory results published in US10155990B2, “Method for predicting therapeutic efficacy of PI3K/AKT/mTOR inhibitor on basis of PHLDA1 or PIK3C2B expression” (Taiho Pharmaceutical Co., Ltd., priority 2013, dated 2018).

Tests used:
Assay type in all cases: cell-based
[1] = test system: panel of 240 cell lines composed of various cancers; test: GI50 versus PHLDA1/PIK3C2B expression in a panel of 240 cell lines (OncoPanel, Ricerca Biosciences); settings: panel of 240 cell lines of various cancers
Excerpt: It was also examined whether the expression level of PHLDA1 or PIK3C2B has a correlation with the sensitivity to PI3K/AKT/mTOR inhibitors in a panel of 240 cell lines (OncoPanel™, Ricerca Biosciences) composed of various cancers such as lung cancer, kidney cancer, liver cancer, pancreatic cancer, large bowel cancer, bladder cancer, breast cancer, head and neck cancer, prostate cancer, skin cancer, blood cancer, and malignant lymphoma.

[2] = test system: human ovarian cancer cell line OVCAR-3; test: Cytotoxicity after PIK3C2B gene knockdown, OVCAR-3; settings: relative cell count after three days, FIG. 3
[3] = test system: human breast cancer cell line HCC1187; test: Cytotoxicity after PIK3C2B gene knockdown, HCC1187; settings: relative cell count after three days, FIG. 3
[4] = test system: 37 cell lines from human breast cancer; test: Cytotoxicity assay (CellTiter-Glo, GI50) in 37 human breast cancer cell lines, related to PHLDA1/PIK3C2B expression, PIK3CA mutation, PTEN deletion
Procedure: A cytotoxicity assay was conducted as described below using 37 cell lines from human breast cancer (AU565, BT20, BT474, BT549, CAMA-1, DU4475, HCC1187, HCC1419, HCC1428, HCC1500, HCC1569, HCC1599, HCC1806, HCC1937, HCC1954, HCC202, HCC2218, HCC38, HCC70, MDA-MB-157, MDA-MB-175, MDA-MB-231, MDA-MB-361, MDA-MB-415, MDA-MB-436, MDA-MB-453, MDA-MB-468, UACC-812, and UACC-893 (all obtained from American Type Culture Collection (ATCC); MCF-7, SK-BR-3, T47D, and ZR-75-1 (all obtained from Sumitomo Dainippon Pharma Co., Ltd.); KPL-1, KPL-3C, and KPL-4 (provided by Dr. Kurebayashi at Kawasaki Medical School)). Each cell line was seeded into a 96-well flat-bottom microplate in an amount of 150 μL, and cultured in an incubator containing 5% carbon dioxide gas at 37° C. for one day. PI3K/AKT/mTOR inhibitors (AKT inhibitor: Compound-I, MK-2206, PI3K-mTOR dual inhibitor: BEZ235, PI3K inhibitor: GDC-0941, mTOR inhibitor: sirolimus) diluted stepwise with dimethylsulfoxide, paclitaxel diluted stepwise with dimethylsulfoxide, and dimethylsulfoxide were individually added to respective media for the cell lines. 50 μL of each of the media was added to the wells of the aforementioned 96-well flat-bottom microplate so that the final concentration of each drug became 10,000, 3,000, 1,000, 300, 100, 30, 3, and 1 nM. A separately prepared 96-well flat-bottom microplate in which each cell line was cultured for one day was allowed to stand at room temperature for 30 minutes, and 50 μL of the supernatant was removed from each well to leave 100 μL of the cell culture solution. […] The microplate was allowed to stand in a dark place for 10 minutes, and then the luminescence intensity of live cells of each well to which the drug were added was measured using a microplate reader (PerkinElmer, ARVOsx). […] The microplate was allowed to stand in a dark place for 10 minutes, and then the luminescence intensity of live cells of each well was measured using a microplate reader. […]
Subsequently, the expression level of PHLDA1 and PIK3C2B in the 37 cell lines from human breast cancer was measured. […]

[5] = 37 human breast cancer cell lines, 3 days drug exposure, FIG. 1

| Correlation between logarithm of GI50 and logarithm of expression level of PHLDA1 [1] | Correlation between logarithm of GI50 and logarithm of expression level of PIK3C2B [1] | Compound | Change in sensitivity to drug caused by PIK3C2B gene knockdown [2] | Change in sensitivity to drug caused by PIK3C2B gene knockdown [3] | Correlation of PTEN deletion with sensitivity (GI50) ([4]; 36 cell lines, PTEN deletion in 8 cell lines, FIG. 4) | Pearson correlation between logarithm of GI50 and logarithm of expression level of PHLDA1 [4, 5] | Pearson correlation between logarithm of GI50 and logarithm of expression level of PIK3C2B [4, 5] |
| --- | --- | --- | --- | --- | --- | --- | --- |
| significant correlation | significant correlation | Cn1c(=O)n(-c2ccc(C(C)(C)C#N)cc2)c2c3cc(-c4cnc5ccccc5c4)ccc3ncc21 [BEZ235, dactolisib] | – | – | – | – | – |
| significant correlation | significant correlation | CC1(O)CC(N)(c2ccc(-c3nc4n(c3-c3ccccc3)COc3ccncc3-4)cc2)C1 (stereo not drawn) [Compound-I, trans-3-amino-1-methyl-3-(4-(3-phenyl-5H-imidazo[1,2-c]pyrido[3,4-e][1,3]oxazin-2-yl)phenyl)cyclobutanol] | decrease in sensitivity | decrease in sensitivity | did not show a correlation | – | – |
| significant correlation | significant correlation | NC1(c2ccc(-c3nc4ccn5c(=O)[nH]nc5c4cc3-c3ccccc3)cc2)CCC1 [MK-2206] | – | – | – | – | – |

Continued, compound first:

| Compound | Correlation between logarithm of GI50 and logarithm of expression level of PHLDA1 [1] | Correlation between logarithm of GI50 and logarithm of expression level of PIK3C2B [1] | Change in sensitivity to drug caused by PIK3C2B gene knockdown [2] | Change in sensitivity to drug caused by PIK3C2B gene knockdown [3] | Correlation of PTEN deletion with sensitivity (GI50) ([4]; 36 cell lines, PTEN deletion in 8 cell lines, FIG. 4) | Pearson correlation between logarithm of GI50 and logarithm of expression level of PHLDA1 [4, 5] | Pearson correlation between logarithm of GI50 and logarithm of expression level of PIK3C2B [4, 5] |
| --- | --- | --- | --- | --- | --- | --- | --- |
| CS(=O)(=O)N1CCN(Cc2cc3nc(-c4cccc5[nH]ncc45)nc(N4CCOCC4)c3s2)CC1 [GDC-0941, pictilisib] | significant correlation | significant correlation | decrease in sensitivity | decrease in sensitivity | – | – | – |
| CC(=O)O[C@H]1C(=O)[C@@]2(C)[C@H]([C@H](OC(=O)c3ccccc3)[C@]3(O)C[C@H](OC(=O)[C@H](O)[C@@H](NC(=O)c4ccccc4)c4ccccc4)C(C)=C1C3(C)C)[C@]1(OC(C)=O)CO[C@@H]1C[C@@H]2O [paclitaxel] | – | – | almost no change | almost no change | – | did not show a correlation | did not show a correlation |
